*1 amine or outer side, *2 acyl side, *3 side chain or, on linkers, in order; H or OH if unused. Where a SMILES comes first, the peptide text is derived from it. [ ]: non-standard residue; d: D form. The star is where a group is joined. Gly(1-adamantyl) = N[C@H](C(=O)O)C12CC3CC(CC(C3)C1)C2; Asp(3,3-(CH2)4) = N[C@H](C(=O)O)C1(C(=O)O)CCCC1; tBuAla = CC(C)(C)C[C@H](N)C(=O)O; Tle = CC(C)(C)[C@H](N)C(=O)O; NH(3-pentyl) = CCC(CC)N*; Pyrrolidide = C1CCN(*)C1; X2 = CC(C)(C)CC(C)(C)N*; CO = O=C([*:1])[*:2]; X1 = CCCC1(N*)CCCC1; X3 = CCCC(C)(C)N*; X4 = CCCC(CCC)N*
Target: HSV-1 ribonucleotide reductase (Human herpesvirus 1, UniProt P08543)
Sequence (P08543 whole entry): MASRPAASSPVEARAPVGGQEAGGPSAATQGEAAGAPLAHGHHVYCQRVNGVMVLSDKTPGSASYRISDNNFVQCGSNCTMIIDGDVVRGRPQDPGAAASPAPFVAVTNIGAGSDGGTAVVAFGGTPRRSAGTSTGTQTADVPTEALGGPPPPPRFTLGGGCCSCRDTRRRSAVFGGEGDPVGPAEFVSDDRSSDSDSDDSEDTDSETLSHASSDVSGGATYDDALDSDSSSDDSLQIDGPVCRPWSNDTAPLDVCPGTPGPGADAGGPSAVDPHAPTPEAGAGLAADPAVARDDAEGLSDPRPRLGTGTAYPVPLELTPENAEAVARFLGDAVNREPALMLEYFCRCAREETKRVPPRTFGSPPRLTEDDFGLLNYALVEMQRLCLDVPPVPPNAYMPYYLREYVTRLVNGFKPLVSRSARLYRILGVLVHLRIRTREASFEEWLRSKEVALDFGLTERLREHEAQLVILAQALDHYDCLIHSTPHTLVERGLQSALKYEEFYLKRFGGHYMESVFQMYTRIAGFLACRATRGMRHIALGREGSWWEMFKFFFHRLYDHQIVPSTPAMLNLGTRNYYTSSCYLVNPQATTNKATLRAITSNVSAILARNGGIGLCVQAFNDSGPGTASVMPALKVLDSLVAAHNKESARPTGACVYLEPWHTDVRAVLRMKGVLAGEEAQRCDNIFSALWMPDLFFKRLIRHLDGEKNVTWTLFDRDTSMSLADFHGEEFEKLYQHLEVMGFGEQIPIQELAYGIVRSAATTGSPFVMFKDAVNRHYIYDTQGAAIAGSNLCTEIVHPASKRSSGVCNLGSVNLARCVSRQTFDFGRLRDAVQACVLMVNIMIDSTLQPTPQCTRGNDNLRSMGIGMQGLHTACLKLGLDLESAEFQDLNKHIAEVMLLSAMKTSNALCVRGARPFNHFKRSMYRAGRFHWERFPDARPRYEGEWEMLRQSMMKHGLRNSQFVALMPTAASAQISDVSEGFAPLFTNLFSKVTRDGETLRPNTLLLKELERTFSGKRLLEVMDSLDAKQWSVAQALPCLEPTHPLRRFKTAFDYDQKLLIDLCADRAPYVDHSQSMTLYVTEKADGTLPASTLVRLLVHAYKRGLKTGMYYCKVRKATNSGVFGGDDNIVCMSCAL
Assay: biochemical
Text: HSV-1 ribonucleotide reductase (partially purified) was obtained from quiescent BHK-21/C13 cells infected with strain F HSV-1 virus at 10 plaque forming units/cell as described by E. A. Cohen et al., J. Gen.
The number of units of the enzyme preparation used in each assay was constant, based on the specific activity of the enzyme preparation.

Row | Compound | IC50 [µM]
1 | CCC(CC)NC(=O)N[C@H](C(=O)N[C@@H](CC(=O)N1CCCC1)C(=O)N[C@H](C(=O)N[C@@H](CC(C)(C)C)C(=O)O)[C@H](C(=O)O)C(C)C)C(C)(C)C [Et2 CHNHC(O)-Tbg-Asp(pyrrolidino)-Asp{(R)-iPr}-γMeLeu-OH] | 0.072
2 | CCC(CC)NC(=O)N[C@H](C(=O)N[C@@H](CC(=O)N1CCCC1)C(=O)N[C@H](C(=O)N[C@@H](CC(C)(C)C)C(=O)O)C1(C(=O)O)CCCC1)C12CC3CC(CC(C3)C1)C2 [Et2 CHNHC(O)--NH-(S)-CH(adamantyl)-C(O)-Asp(pyrrolidino)-Asp(cyPn)-γMeLeu-OH] ({NH(3-pentyl)-CO}-[Gly(1-adamantyl)]D(Pyrrolidide)[Asp(3,3-(CH2)4)][tBuAla]-OH) | 0.082
3 | CCCC(CCC)NC(=O)N[C@H](C(=O)N[C@@H](CC(=O)N1CCCC1)C(=O)N[C@H](C(=O)NCC(C)(C)CC)C1(C(=O)O)CCCC1)C(C)(C)C [Pr2 CHNHC(O)-Tbg-Asp(pyrrolidino)-Asp(cyPn)-NHCH2 CMe2 Et] | 0.24
4 | CCCC1(NC(=O)N[C@H](C(=O)N[C@@H](CC(=O)N2CCCC2)C(=O)N[C@H](C(=O)N[C@@H](CC(C)(C)C)C(=O)O)C2(C(=O)O)CCCC2)C(C)(C)C)CCCC1 [(1-propylcyclopentyl)-NHC(O)-Tbg-Asp(pyrrolidino)-Asp(cyPn)-γMeLeu-OH] ({X1-CO}-[Tle]D(Pyrrolidide)[Asp(3,3-(CH2)4)][tBuAla]-OH) | 0.13
5 | CCCC(CC)(CCC)NC(=O)N[C@H](C(=O)N[C@@H](CC(=O)N1CCCC1)C(=O)N[C@H](C(=O)N[C@H](CC)C(C)(C)C)C1(C(=O)O)CCCC1)C(C)(C)C [EtPr2 CNHC(O)-Tbg-Asp(pyrrolidino)Asp(cyPn)-NH-(R)-CH(Et)CMe3] | 0.14
6 | CCCC1(NC(=O)N[C@H](C(=O)N[C@@H](CC(=O)N2CCCC2)C(=O)N[C@H](C(=O)N[C@@H](CC(C)(C)C)C(=O)OCC)C2(C(=O)O)CCCC2)C(C)(C)C)CCCC1 [(1-propylcyclopentyl)-NHC(O)-Tbg-Asp(pyrrolidino)-Asp(cyPn)-γMeLeu-OEt] ({X1-CO}-[Tle]D(Pyrrolidide)[Asp(3,3-(CH2)4)][tBuAla]-OEt) | 0.2
7 | CCC(CC)NC(=O)N[C@H](C(=O)N[C@@H](CC(=O)N1CCCC1)C(=O)N[C@H](C(=O)N[C@H](CO)CC(C)(C)C)[C@H](C(=O)O)C(C)C)C(C)(C)C [Et2 CHNHC(O)-Tbg-Asp(pyrrolidino)-Asp{(R)-iPr}-γMeLeucinol] | 0.1
8 | CCCC(C)(C)NC(=O)N[C@H](C(=O)N[C@@H](CC(=O)N1CCCC1)C(=O)N[C@H](C(=O)N[C@@H](CC(C)(C)C)C(=O)O)C1(C(=O)O)CCCC1)C(C)(C)C [PrMe2 CNHC(O)-Tbg-Asp(pyrrolidino)-Asp(cyPn)-γMeLeu-OH] ({X3-CO}-[Tle]D(Pyrrolidide)[Asp(3,3-(CH2)4)][tBuAla]-OH) | 0.1
9 | CCCC(CCC)NC(=O)N[C@H](C(=O)N[C@@H](CC(=O)N1CCCC1)C(=O)N[C@H](C(=O)NCC(C)(C)C)C1(C(=O)O)CCCC1)C(C)(C)C [Pr2 CHNHC(O)-Tbg-Asp(pyrrolidino)-Asp(cyPn)-NHCH2 CMe3] | 0.18
10 | CCCC(CCC)NC(=O)N[C@H](C(=O)N[C@@H](CC(=O)C1CCC1)C(=O)N[C@H](C(=O)NCC(C)(C)C)C1(C(=O)O)CCCC1)C(C)(C)C [Pr2 CHNHC(O)-Tbg-NH-(S)-CH(2-cyclobutyl-2-oxoethyl)C(O)-Asp(cyPn)-NHCH2 CMe3] | 0.25
11 | CCC(CC)NC(=O)N[C@H](C(=O)N[C@@H](CC(=O)N1CCCC1)C(=O)N[C@H](C(=O)NCC(C)(C)C)C1(C(=O)O)CCCC1)C(C)(C)C [Et2 CHNHC(O)-Tbg-Asp(pyrrolidino)-Asp(cyPn)-NHCH2 CMe3] | 0.13
12 | CC(C)(C)C[C@H](NC(=O)[C@@H](NC(=O)[C@H](CC(=O)N1CCCC1)NC(=O)[C@@H](NC(=O)NC(C)(C)CC(C)(C)C)C(C)(C)C)C1(C(=O)O)CCCC1)C(=O)O [Me3 CCH2 CMe2 NHC(O)-Tbg-Asp(pyrrolidino)-Asp(cyPn)-γMeLeu-OH] ({X2-CO}-[Tle]D(Pyrrolidide)[Asp(3,3-(CH2)4)][tBuAla]-OH) | 0.18
13 | CCC(CC)NC(=O)N[C@H](C(=O)N[C@@H](CC(=O)N1CCCC1)C(=O)N[C@H](C(=O)N[C@@H](CC(C)(C)C)C(=O)O)C1(C(=O)O)CCCC1)C(C)(C)C [Et2 CHNHC(O)-Tbg-Asp(pyrrolidino)-Asp(cyPn)-γMeLeu-OH] ({NH(3-pentyl)-CO}-[Tle]D(Pyrrolidide)[Asp(3,3-(CH2)4)][tBuAla]-OH) | 0.1
14 | CCC(CC)NC(=O)N[C@H](C(=O)N[C@@H](CC(=O)N1CCCC1)C(=O)N[C@H](C(=O)N[C@H](CO)CC(C)(C)C)C1(C(=O)O)CCCC1)C(C)(C)C [Et2 CHNHC(O)-Tbg-Asp(pyrrolidino)-Asp(cyPn)-γMeLeucinol] | 0.098
15 | CCC(CC)NC(=O)N[C@H](C(=O)N[C@@H](CC(=O)N1CCCC1)C(=O)N[C@H](C(=O)N[C@H](CO)CC(C)(C)C)C1(C(=O)O)CCCC1)C12CC3CC(CC(C3)C1)C2 [Et2 CHNHC(O)--NH-(S)-CH(adamantyl)-C(O)-Asp(pyrrolidino)-Asp(cyPn)-γMeLeucinol] | 0.16
16 | CCC(CC)NC(=O)N[C@H](C(=O)N[C@@H](CC(=O)N1CCCC1)C(=O)N[C@H](C(=O)NCCC(C)(C)C)C1(C(=O)O)CCCC1)C(C)(C)C [Et2 CHNHC(O)-Tbg-Asp(pyrrolidino)-Asp(cyPn)-NHCH2 CH2 CMe3] | 0.2

Row | Compound | IC50 [µM]
17 | CCCC(CCC)NC(=O)N[C@H](C(=O)N[C@@H](CC(=O)C1CCCC1)C(=O)N[C@H](C(=O)NCC(C)(C)C)C1(C(=O)O)CCCC1)C(C)(C)C [Pr2 CHNHC(O)-Tbg-NH-(S)-CH(2-cyclopentyl-2-oxoethyl)C(O)-Asp(cyPn)-NHCH2 CMe3] | 0.2
18 | CCCC(CCC)NC(=O)N[C@H](C(=O)N[C@@H](CC(=O)N1CCCC1)C(=O)N[C@H](C(=O)N[C@H](C)C(C)(C)C)C1(C(=O)O)CCCC1)C(C)(C)C [Pr2 CHNHC(O)-Tbg-Asp(pyrrolidino)-Asp(cyPn)-NHCH(CH3)CMe3] | 0.18
19 | CCCC(CCC)NC(=O)N[C@H](C(=O)N[C@@H](CC(=O)C1CCCCC1)C(=O)N[C@H](C(=O)NCC(C)(C)C)C1(C(=O)O)CCCC1)C(C)(C)C [Pr2 CHNHC(O)-Tbg-NHCH(2-cyclohexyl-2-oxoethyl)C(O)-Asp(cyPn)-NHCH2 CMe3] | 0.14
20 | CC(C)(C)C[C@@H](CO)NC(=O)[C@@H](NC(=O)[C@H](CC(=O)N1CCCC1)NC(=O)[C@@H](NC(=O)NC(C)(C)C)C(C)(C)C)C1(C(=O)O)CCCC1 [Me3 CNHC(O)-Tbg-Asp(pyrrolidino)-Asp(cyPn)-γMeLeucinol] | 0.1
21 | CCC(CC)NC(=O)N[C@H](C(=O)N[C@@H](CC(=O)N1CCCC1)C(=O)N[C@H](C(=O)N[C@@H](CC(C)C)C(=O)O)[C@H](C(=O)O)C(C)C)C(C)(C)C [Et2 CHNHC(O)-Tbg-Asp(pyrrolidino)-Asp{(R)-iPr}-Leu-OH] | 0.57
22 | CCCC(C)(CCC)NC(=O)N[C@H](C(=O)N[C@@H](CC(=O)N1CCCC1)C(=O)N[C@H](C(=O)NCC(C)(C)C)C1(C(=O)O)CCCC1)C(C)(C)C [MePr2 CNHC(O)-Tbg-Asp(pyrrolidino)-Asp(cyPn)-NHCH2 CMe3] | 0.16
23 | CC(C)(C)C[C@@H](CO)NC(=O)[C@@H](NC(=O)[C@H](CC(=O)N1CCCC1)NC(=O)[C@@H](NC(=O)NCc1ccccc1)C(C)(C)C)C1(C(=O)O)CCCC1 [BzlNHC(O)-Tbg-Asp(pyrrolidino)-Asp(cyPn)-γMeLeucinol] | 0.41
24 | CCC(CC)NC(=O)N[C@H](C(=O)N[C@@H](CC(=O)N1CCCC1)C(=O)N[C@H](C(=O)NCC(C)C)C1(C(=O)O)CCCC1)C(C)(C)C [Et2 CHNHC(O)-Tbg-Asp(pyrrolidino)-Asp(cyPn)-NHCH2 CHMe2] | 0.6
25 | CCCC(CCC)NC(=O)N[C@H](C(=O)N[C@@H](CC(=O)N1CCCC1)C(=O)N[C@H](C(=O)N[C@@H](CC(C)(C)C)C(=O)O)C1(C(=O)O)CCCC1)C(C)(C)C [Pr2 CHNHC(O)-Tbg-Asp(pyrrolidino)-Asp(cyPn)-γMeLeu-OH] ({X4-CO}-[Tle]D(Pyrrolidide)[Asp(3,3-(CH2)4)][tBuAla]-OH) | 0.096
26 | CC(C)(C)C[C@@H](CO)NC(=O)[C@@H](NC(=O)[C@H](CC(=O)N1CCCC1)NC(=O)[C@@H](NC(=O)Nc1ccccc1)C(C)(C)C)C1(C(=O)O)CCCC1 [PhNHC(O)-Tbg-Asp(pyrrolidino)-Asp(cyPn)-γMeLeucinol] | 0.71
27 | CCCC(CCC)NC(=O)N[C@H](C(=O)N[C@@H](CC(=O)N1CCCC1)C(=O)N[C@H](C(=O)N[C@H](CO)CC(C)(C)C)C1(C(=O)O)CCCC1)C(C)(C)C(=O)O [Pr2 CHNHC(O)-Asp(diMe)-Asp(pyrrolidino)-Asp(cyPn)-γMeLeucinol] | 0.2
28 | CNC(=O)N[C@H](C(=O)N[C@@H](CC(=O)N1CCCC1)C(=O)N[C@H](C(=O)N[C@H](CO)CC(C)(C)C)C1(C(=O)O)CCCC1)C(C)(C)C [MeNHC(O)-Tbg-Asp(pyrrolidino)-Asp(cyPn)-γMeLeucinol] | 0.89
29 | CC(C)NC(=O)N[C@H](C(=O)N[C@@H](CC(=O)N1CCCC1)C(=O)N[C@H](C(=O)N[C@H](CO)CC(C)(C)C)C1(C(=O)O)CCCC1)C(C)(C)C [Me2 CHNHC(O)-Tbg-Asp(pyrrolidino)-Asp(cyPn)-γMeLeucinol] | 0.07
30 | CCCC(CCC)NC(=O)N[C@H](C(=O)N[C@@H](CC(=O)N1CCCC1)C(=O)N[C@H](C(=O)N[C@H](CO)CC(C)(C)C)C1(C(=O)O)CCCC1)C(C)(C)C [Title Compound of Example 8, Pr2 CHNHC(O)-Tbg-Asp(pyrrolidino)-Asp(cyPn)-γMeLeucinol] | 0.08
31 | CCCC(CCC)NC(=O)N[C@H](C(=O)N[C@@H](CC(=O)C(CC)CC)C(=O)N[C@H](C(=O)NCC(C)(C)C)C1(C(=O)O)CCCC1)C(C)(C)C [Pr2 CHNHC(O)-Tbg-NHCH(3-ethyl-2-oxopentyl)CO-Asp(cyPn)-NHCH2 CMe3] | 0.4
